Measured values taken from publication PMC9516332 (Frontiers in Oncology, 2022).

Assays:
Assay in all cases: Kinase panel profiling at 1 µmol/L (MSA or IMAP), percentage inhibition
Type in all cases: biochemical
[1] = target: panel of 255 wild-type kinases (Homo sapiens, UniProt Q13177); conditions: PAK2; 1 µmol/L single concentration; read-out: %-inhibition, PAK2
[2] = target: panel of 255 wild-type kinases (Homo sapiens, UniProt Q13153); conditions: PAK1; 1 µmol/L single concentration; read-out: %-inhibition, PAK1
[3] = target: T1, panel of 255 wild-type kinases (Homo sapiens, UniProt O00141); conditions: kinase SGK; 1 µmol/L single concentration; read-out: %-inhibition at 1 µmol/L, SGK
T1 sequence (O00141 1-431): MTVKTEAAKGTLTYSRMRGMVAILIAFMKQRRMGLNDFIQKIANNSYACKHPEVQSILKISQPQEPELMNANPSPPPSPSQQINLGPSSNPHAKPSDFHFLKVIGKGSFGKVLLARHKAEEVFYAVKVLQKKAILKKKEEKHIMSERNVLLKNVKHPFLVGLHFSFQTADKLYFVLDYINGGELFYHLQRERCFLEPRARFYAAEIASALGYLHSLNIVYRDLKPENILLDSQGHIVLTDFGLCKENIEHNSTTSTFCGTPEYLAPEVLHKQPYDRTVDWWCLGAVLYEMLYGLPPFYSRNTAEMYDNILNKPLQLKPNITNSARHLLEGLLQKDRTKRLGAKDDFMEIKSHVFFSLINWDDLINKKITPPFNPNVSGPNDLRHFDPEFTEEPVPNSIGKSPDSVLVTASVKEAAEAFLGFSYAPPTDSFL

[4] = target: T2, panel of 255 wild-type kinases (Homo sapiens, UniProt Q9HBY8); conditions: kinase SGK2; 1 µmol/L single concentration; read-out: %-inhibition at 1 µmol/L, SGK2
T2 sequence (Q9HBY8 1-367): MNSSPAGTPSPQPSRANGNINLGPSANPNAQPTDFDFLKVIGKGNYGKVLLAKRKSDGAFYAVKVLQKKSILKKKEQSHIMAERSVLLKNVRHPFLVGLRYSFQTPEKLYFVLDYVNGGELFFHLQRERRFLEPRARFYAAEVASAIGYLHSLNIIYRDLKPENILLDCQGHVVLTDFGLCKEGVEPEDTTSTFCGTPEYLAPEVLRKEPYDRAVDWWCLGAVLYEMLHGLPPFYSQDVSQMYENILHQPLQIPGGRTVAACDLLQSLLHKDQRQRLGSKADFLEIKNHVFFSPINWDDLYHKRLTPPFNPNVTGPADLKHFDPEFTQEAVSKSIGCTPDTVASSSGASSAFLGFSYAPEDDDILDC

[5] = target: panel of 255 wild-type kinases (Homo sapiens, UniProt P48729); conditions: kinase CK1α; 1 µmol/L single concentration; read-out: %-inhibition at 1 µmol/L, CK1α
[6] = target: panel of 255 wild-type kinases (Homo sapiens, UniProt P08631); conditions: kinase HCK; 1 µmol/L single concentration; read-out: %-inhibition at 1 µmol/L, HCK
[7] = target: panel of 255 wild-type kinases (Homo sapiens, UniProt P57059); conditions: kinase SIK; 1 µmol/L single concentration; read-out: %-inhibition at 1 µmol/L, SIK
[8] = target: T3, panel of 255 wild-type kinases (Homo sapiens, UniProt Q12866); conditions: MER; 1 µmol/L single concentration; read-out: %-inhibition, MER
T3 sequence (Q12866 21-999): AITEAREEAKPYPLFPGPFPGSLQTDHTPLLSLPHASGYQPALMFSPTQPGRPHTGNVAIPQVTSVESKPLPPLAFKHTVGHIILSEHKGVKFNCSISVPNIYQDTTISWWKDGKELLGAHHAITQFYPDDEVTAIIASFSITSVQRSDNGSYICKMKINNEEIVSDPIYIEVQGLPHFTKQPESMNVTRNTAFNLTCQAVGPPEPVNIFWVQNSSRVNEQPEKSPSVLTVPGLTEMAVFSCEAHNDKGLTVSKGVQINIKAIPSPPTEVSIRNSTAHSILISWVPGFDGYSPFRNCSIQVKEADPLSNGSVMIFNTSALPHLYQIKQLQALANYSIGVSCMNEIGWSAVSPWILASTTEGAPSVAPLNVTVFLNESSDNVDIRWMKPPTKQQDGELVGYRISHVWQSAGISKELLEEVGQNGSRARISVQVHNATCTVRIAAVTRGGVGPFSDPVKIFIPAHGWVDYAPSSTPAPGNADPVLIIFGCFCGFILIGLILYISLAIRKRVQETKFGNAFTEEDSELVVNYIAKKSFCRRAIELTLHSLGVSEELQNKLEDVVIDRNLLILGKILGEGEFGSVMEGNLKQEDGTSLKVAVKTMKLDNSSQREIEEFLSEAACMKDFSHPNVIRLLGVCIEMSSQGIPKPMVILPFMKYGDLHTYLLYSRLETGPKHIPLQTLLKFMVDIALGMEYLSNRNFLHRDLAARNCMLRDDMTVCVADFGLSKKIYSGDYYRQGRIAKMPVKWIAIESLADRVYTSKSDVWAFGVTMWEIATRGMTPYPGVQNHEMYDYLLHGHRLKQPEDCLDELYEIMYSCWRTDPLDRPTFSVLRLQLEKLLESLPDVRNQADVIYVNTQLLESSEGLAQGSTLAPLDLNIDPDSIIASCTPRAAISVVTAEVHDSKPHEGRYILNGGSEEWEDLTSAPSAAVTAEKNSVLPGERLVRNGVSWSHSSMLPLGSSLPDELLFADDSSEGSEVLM

[9] = target: panel of 255 wild-type kinases (Homo sapiens, UniProt P31751); conditions: AKT2 kinase assay; 1 µmol/L single concentration; read-out: %-inhibition AKT2

SMILES	inhibition at 1 µM [1] [%]	inhibition at 1 µM [2] [%]	inhibition at 1 µM [3] [%]	inhibition at 1 µM [4] [%]	inhibition at 1 µM [5] [%]	inhibition at 1 µM [6] [%]	inhibition at 1 µM [7] [%]	inhibition at 1 µM [8] [%]	inhibition at 1 µM [9] [%]
CCn1c(=O)c(-c2cc(NC(=O)Nc3ccccc3)c(F)cc2Br)cc2cnc(NC)cc21 [ripretinib]	4.69	0.719	-5	-5	11	60	66	-11	-5
Cn1cnc2c(F)c(Nc3ccc(Br)cc3Cl)c(C(=O)NOCCO)cc21 [selumetinib]	-3.7	7	1.83	-5	-3.42	4	-3	11	0.316
Cc1cc(Nc2ncnc3ccc(NC4=NC(C)(C)CO4)cc23)ccc1Oc1ccn2ncnc2c1 [tucatinib]	-1.88	-1.11	0.299	-4	0.588	-3	0.717	12	-1.46

Results, then the compound that gave them:

inhibition at 1 µM [1] [%]	inhibition at 1 µM [2] [%]	inhibition at 1 µM [3] [%]	inhibition at 1 µM [4] [%]	inhibition at 1 µM [5] [%]	inhibition at 1 µM [6] [%]	inhibition at 1 µM [7] [%]	inhibition at 1 µM [8] [%]	inhibition at 1 µM [9] [%]	SMILES
16	9	7	11	-2.22	82	1.69	79	0.305	CO[C@]1(C(=O)N[C@@H](C)c2ccc(-n3cc(F)cn3)nc2)CC[C@H](c2nc(C)cc(Nc3cc(C)[nH]n3)n2)CC1 [pralsetinib]
5	-5.31	11	10	25	58	9	88	-1.76	COc1ccc(CN2C3CC2CN(c2ccc(-c4cc(OCC(C)(C)O)cn5ncc(C#N)c45)cn2)C3)cn1 [selpercatinib]
